Laboratory results published in the supplement of paper PMC10307832.

How the values were obtained:
Assay in all cases: relative viability (nuclei count vs DMSO), 5 days (fraction); higher = more cells survive
BX 795 = compound: O=C(NCCCNc1nc(Nc2cccc(NC(=O)N3CCCC3)c2)ncc1I)c1cccs1 [BX 795]
Method in brief: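 Five library-drug doses, separated by factors of √10, were pinned into 1536-well plates holding lung cancer cell lines after an overnight stay at 37 °C. Cells were fixed, permeabilised and Hoechst-stained in one step after 5 days without medium change, then imaged at 4×. Viability compares treated-well with vehicle-well nuclei, counted in MetaXpress, as a median across plates. Passing plates had control CV below 25% and at least one doubling.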

BX 795 + Bortezomib = compound: O=C(NCCCNc1nc(Nc2cccc(NC(=O)N3CCCC3)c2)ncc1I)c1cccs1 [BX 795] + CC(C)C[C@H](NC(=O)[C@H](Cc1ccccc1)NC(=O)c1cnccn1)B(O)O [Bortezomib] (partner 0.002 µM)
Method in brief: (§1)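 Relative viability equals treated-well nuclei counts divided by vehicle-well nuclei counts. Counts came from 4× images of lung cancer cell lines grown in 1536-well plates for 5 days after pin-tool dosing on the day after seeding. Dosing used one drug alone or a fixed anchor-drug dose plus five library-drug doses (not always all listed) in √10 steps, and values are medians of duplicate plates.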

BX 795 + Navitoclax = compound: O=C(NCCCNc1nc(Nc2cccc(NC(=O)N3CCCC3)c2)ncc1I)c1cccs1 [BX 795] + CC1(C)CCC(c2ccc(Cl)cc2)=C(CN2CCN(c3ccc(C(=O)NS(=O)(=O)c4ccc(N[C@H](CCN5CCOCC5)CSc5ccccc5)c(S(=O)(=O)C(F)(F)F)c4)cc3)CC2)C1 [Navitoclax] (partner 0.5 µM)
Method in brief: as §1

BX 795 + Foretinib = compound: O=C(NCCCNc1nc(Nc2cccc(NC(=O)N3CCCC3)c2)ncc1I)c1cccs1 [BX 795] + COc1cc2c(Oc3ccc(NC(=O)C4(C(=O)Nc5ccc(F)cc5)CC4)cc3F)ccnc2cc1OCCCN1CCOCC1 [Foretinib] (partner 0.25 µM)
Method in brief: as §1

BX 795 + Lapatinib = compound: O=C(NCCCNc1nc(Nc2cccc(NC(=O)N3CCCC3)c2)ncc1I)c1cccs1 [BX 795] + CS(=O)(=O)CCNCc1ccc(-c2ccc3ncnc(Nc4ccc(OCc5cccc(F)c5)c(Cl)c4)c3c2)o1 [Lapatinib] (partner 2 µM)
Method in brief: as §1

BX 795 + Pictilisib = compound: O=C(NCCCNc1nc(Nc2cccc(NC(=O)N3CCCC3)c2)ncc1I)c1cccs1 [BX 795] + CS(=O)(=O)N1CCN(Cc2cc3nc(-c4cccc5[nH]ncc45)nc(N4CCOCC4)c3s2)CC1 [Pictilisib] (partner 1 µM)
Method in brief: as §1

BX 795 + Crizotinib = compound: O=C(NCCCNc1nc(Nc2cccc(NC(=O)N3CCCC3)c2)ncc1I)c1cccs1 [BX 795] + C[C@@H](Oc1cc(-c2cnn(C3CCNCC3)c2)cnc1N)c1c(Cl)ccc(F)c1Cl [Crizotinib] (partner 1 µM)
Method in brief: as §1

BX 795 + Linsitinib = compound: O=C(NCCCNc1nc(Nc2cccc(NC(=O)N3CCCC3)c2)ncc1I)c1cccs1 [BX 795] + C[C@]1(O)C[C@@H](c2nc(-c3ccc4ccc(-c5ccccc5)nc4c3)c3c(N)nccn32)C1 [Linsitinib] (partner 1 µM)
Method in brief: as §1

BX 795 + Alpelisib = compound: O=C(NCCCNc1nc(Nc2cccc(NC(=O)N3CCCC3)c2)ncc1I)c1cccs1 [BX 795] + Cc1nc(NC(=O)N2CCC[C@H]2C(N)=O)sc1-c1ccnc(C(C)(C)C(F)(F)F)c1 [Alpelisib] (partner 2 µM)
Method in brief: as §1

BX 795 + Olaparib = compound: O=C(NCCCNc1nc(Nc2cccc(NC(=O)N3CCCC3)c2)ncc1I)c1cccs1 [BX 795] + O=C(c1cc(Cc2n[nH]c(=O)c3ccccc23)ccc1F)N1CCN(C(=O)C2CC2)CC1 [Olaparib] (partner 8 µM)
Method in brief: as §1

Cell Line | relative viability (BX 795; 0.04 µM) | relative viability (BX 795; 0.1265 µM) | relative viability (BX 795; 0.4 µM) | relative viability (BX 795; 1.265 µM) | relative viability (BX 795 + Bortezomib; first compound 0.04 µM) | relative viability (BX 795 + Bortezomib; first compound 0.1265 µM) | relative viability (BX 795 + Bortezomib; first compound 0.4 µM) | relative viability (BX 795 + Bortezomib; first compound 1.265 µM) | relative viability (BX 795 + Navitoclax; first compound 0.04 µM) | relative viability (BX 795 + Navitoclax; first compound 0.1265 µM) | relative viability (BX 795 + Navitoclax; first compound 0.4 µM) | relative viability (BX 795 + Navitoclax; first compound 1.265 µM) | relative viability (BX 795 + Foretinib; first compound 0.04 µM) | relative viability (BX 795 + Foretinib; first compound 0.1265 µM) | relative viability (BX 795 + Foretinib; first compound 0.4 µM) | relative viability (BX 795 + Foretinib; first compound 1.265 µM) | relative viability (BX 795 + Lapatinib; first compound 0.04 µM) | relative viability (BX 795 + Lapatinib; first compound 0.1265 µM) | relative viability (BX 795 + Lapatinib; first compound 0.4 µM) | relative viability (BX 795 + Lapatinib; first compound 1.265 µM) | relative viability (BX 795 + Pictilisib; first compound 0.04 µM) | relative viability (BX 795 + Pictilisib; first compound 0.1265 µM) | relative viability (BX 795 + Pictilisib; first compound 0.4 µM) | relative viability (BX 795 + Pictilisib; first compound 1.265 µM) | relative viability (BX 795 + Crizotinib; first compound 0.04 µM) | relative viability (BX 795 + Crizotinib; first compound 0.1265 µM) | relative viability (BX 795 + Crizotinib; first compound 0.4 µM) | relative viability (BX 795 + Crizotinib; first compound 1.265 µM) | relative viability (BX 795 + Linsitinib; first compound 0.04 µM) | relative viability (BX 795 + Linsitinib; first compound 0.1265 µM) | relative viability (BX 795 + Linsitinib; first compound 0.4 µM) | relative viability (BX 795 + Linsitinib; first compound 1.265 µM) | relative viability (BX 795 + Alpelisib; first compound 0.04 µM) | relative viability (BX 795 + Alpelisib; first compound 0.1265 µM) | relative viability (BX 795 + Alpelisib; first compound 0.4 µM) | relative viability (BX 795 + Alpelisib; first compound 1.265 µM) | relative viability (BX 795 + Olaparib; first compound 0.04 µM) | relative viability (BX 795 + Olaparib; first compound 0.1265 µM) | relative viability (BX 795 + Olaparib; first compound 0.4 µM) | relative viability (BX 795 + Olaparib; first compound 1.265 µM)
Calu-6 | 0.98 | 1 | 0.716 | 0.665 | 1.04 | 1.02 | 0.831 | 0.525 | 0.825 | 0.874 | 0.727 | 0.389 | 0.91 | 0.84 | 0.557 | 0.555 | 1.02 | 1.1 | 0.843 | 0.552 | 0.896 | 0.966 | 0.518 | 0.505 | 0.728 | 0.777 | 0.556 | 0.249 | 0.883 | 1.06 | 0.533 | 0.726 | 1.1 | 0.919 | 0.585 | 0.509 | 0.559 | 0.591 | 0.283 | 0.336
EBC-1 | 1.02 | 1.01 | 0.931 | 0.543 | 0.571 | 0.458 | 0.551 | 0.269 | 0.508 | 0.438 | 0.401 | 0.222 | 0.104 | 0.0912 | 0.0982 | 0.0866 | 0.217 | 0.189 | 0.231 | 0.188 | 0.419 | 0.351 | 0.262 | 0.157 | 0.199 | 0.186 | 0.184 | 0.172 | 0.957 | 0.864 | 0.85 | 0.439 | 0.874 | 0.763 | 0.628 | 0.34 | 0.794 | 0.707 | 0.765 | 0.355
